Results from US20240228458A1, “PYRIMIDINE DERIVATIVE HAVING PROTEIN KINASE INHIBITORY ACTIVITY, AND THERAPEUTIC PHARMACEUTICAL COMPOSITION COMPRISING SAME” (THERAPEX CO., LTD., priority 2021, published 2024).

Key:
Format in all cases: cell-based
[1] = tested on: Ba/F3 cells expressing del19/T790M/C797S (EGFR-DTC); assay: Growth inhibition (GI50) of Ba/F3 cells expressing del19/T790M/C797S (EGFR-DTC), Celltiter glo; settings: Mus musculus, BaF3, 72 h
Experimental: (§1) In this experimental example, a determination was made as to whether the compounds prepared in Examples 1-283 have the ability to inhibit the growth of Ba/F3 cells expressing EGFR-wt, del19/T790M/C797S (EGFR-DTC), L858R/T790M/C797S (EGFR-LTC), del19/T790M (EGFR-DT), and L858R/T790M (EGFR-LT) variants.
(§2) The parental Ba/F3 cell line is a population of cells that are not introduced with EGFR variants. Specifically, 100 μl of a cell line expressing each variant was plated in a 96-well plate at a density of 100,000 cells/ml. 10-point, 4-fold serial dilutions of each compound were prepared, starting at 2 mM. After 4 h, 0.5 μl of the compound (0.5% DMSO) was added, followed by incubation at 37° C. and 5% CO2 for 72 h. After incubation, the number of viable cells was measured using a Celltiter glo assay kit (Promega) and the GI50 of the compound was determined. The term “GI50” refers to the molar concentration (μM) of the compound required for 50% growth inhibition of cells.

parental Ba/F3 cell line = assay: Growth inhibition (GI50) of the parental Ba/F3 cell line (not introduced with EGFR variants), Celltiter glo; settings: Mus musculus, BaF3, 72 h, parental Ba/F3 cells
Experimental: as §2

[2] = tested on: Ba/F3 cells expressing EGFR-wt; assay: Growth inhibition (GI50) of Ba/F3 cells expressing EGFR-wt, Celltiter glo; settings: Mus musculus, BaF3, 72 h
Experimental: as §1, §2

[3] = tested on: Ba/F3 cells expressing L858R/T790M/C797S (EGFR-LTC); assay: Growth inhibition (GI50) of Ba/F3 cells expressing L858R/T790M/C797S (EGFR-LTC), Celltiter glo; settings: Mus musculus, BaF3, 72 h
Experimental: as §1, §2

SMILES	GI50 [1] [µM]	GI50 (parental Ba/F3 cell line) [µM]	GI50 [2] [µM]	GI50 [3] [µM]
CN1CCN(C2CCN(c3ncc(Nc4ncc(Br)c(Nc5ccc(F)cc5NS(C)(=O)=O)n4)cc3F)CC2)CC1 [Example 25, N-(2-((5-bromo-2-((5-fluoro-6-(4-(4-methylpiperazin-1-yl)piperidin-1-yl)pyridin-3-yl)amino)pyrimidin-4-yl)amino)-5-fluorophenyl)methanesulfonamide]	0.1 to 0.5	0.5 to 2	0.5 to 2	0.1 to 0.5
COc1cc(N2CCC(N3CCN(C)CC3)CC2)c(Cl)cc1Nc1ncc(Br)c(Nc2ccc(F)cc2NS(C)(=O)=O)n1 [Example 26, N-(2-((5-bromo-2-((5-chloro-2-methoxy-4-(4-(4-methylpiperazin-1-yl)piperidin-1-yl)phenyl)amino)pyrimidin-4-yl)amino)-5-fluorophenyl)methanesulfonamide]	0.025 to 0.1	2 to 10	0.1 to 0.5	0.025 to 0.1
CN1CCN(C2CCN(c3ccc(Nc4ncc(Br)c(Nc5ccc(F)cc5NS(C)(=O)=O)n4)c(Cl)c3)CC2)CC1 [Example 27, N-(2-((5-bromo-2-((2-chloro-4-(4-(4-methylpiperazin-1-yl)piperidin-1-yl)phenyl)amino)pyrimidin-4-yl)amino)-5-fluorophenyl)methanesulfonamide]	0.1 to 0.5	2 to 10	2 to 10	0.5 to 2
COc1nc(N2CCC(N3CCN(C)CC3)CC2)ccc1Nc1ncc(Br)c(Nc2ccc(F)cc2NS(C)(=O)=O)n1 [Example 28, N-(2-((5-bromo-2-((2-methoxy-6-(4-(4-methylpiperazin-1-yl)piperidin-1-yl)pyridin-3-yl)amino)pyrimidin-4-yl)amino)-5-fluorophenyl)methanesulfonamide]	0.5 to 2	2 to 10	2 to 10	0.5 to 2
COc1nc(N2CCOCC2)ccc1Nc1ncc(Br)c(Nc2ccc(F)cc2NS(C)(=O)=O)n1 [Example 29, N-(2-((5-bromo-2-((2-methoxy-6-morpholinopyridin-3-yl)amino)pyrimidin-4-yl)amino)-5-fluorophenyl)methanesulfonamide]	> 10	> 10	> 10	> 10
COc1nc(N2CCN(C3CC3)CC2)ccc1Nc1ncc(Br)c(Nc2ccc(F)cc2NS(C)(=O)=O)n1 [Example 30, N-(2-((5-bromo-2-((6-(4-cyclopropylpiperazin-1-yl)-2-methoxypyridin-3-yl)amino)pyrimidin-4-yl)amino)-5-fluorophenyl)methanesulfonamide]	2 to 10	> 10	> 10	2 to 10
COc1nc(N2CCC(N3CCOCC3)CC2)ccc1Nc1ncc(Br)c(Nc2ccc(F)cc2NS(C)(=O)=O)n1 [Example 31, N-(2-((5-bromo-2-((2-methoxy-6-(4-morpholinopiperidin-1-yl)pyridin-3-yl)amino)pyrimidin-4-yl)amino)-5-fluorophenyl)methanesulfonamide]	0.5 to 2	2 to 10	2 to 10	2 to 10
COc1nc(N2CCC(C)(C)CC2)ccc1Nc1ncc(Br)c(Nc2ccc(F)cc2NS(C)(=O)=O)n1 [Example 32, N-(2-((5-bromo-2-((6-(4,4-dimethylpiperidin-1-yl)-2-methoxypyridin-3-yl)amino)pyrimidin-4-yl)amino)-5-fluorophenyl)methanesulfonamide]	2 to 10	2 to 10	2 to 10	2 to 10
COc1nc(N2CCC(F)(F)CC2)ccc1Nc1ncc(Br)c(Nc2ccc(F)cc2NS(C)(=O)=O)n1 [Example 33, N-(2-((5-Bromo-2-((6-(4,4-difluoropiperidin-1-yl)-2-methoxypyridin-3-yl)amino)pyrimidin-4-yl)amino)-5-fluorophenyl)methanesulfonamide]	2 to 10	2 to 10	2 to 10	2 to 10
CN1CCN(C2CCN(c3nc(Cl)c(Nc4ncc(Br)c(Nc5ccc(F)cc5NS(C)(=O)=O)n4)cc3C(F)(F)F)CC2)CC1 [Example 34, N-(2-((5-bromo-2-((2-chloro-6-(4-(4-methylpiperazin-1-yl)piperidin-1-yl)-5-(trifluoromethyl)pyridin-3-yl)amino)pyrimidin-4-yl)amino)-5-fluorophenyl)methanesulfonamide]	0.5 to 2	2 to 10	2 to 10	0.1 to 0.5
CN1CCN(C2CCN(c3ccc4cc(Nc5ncc(Br)c(Nc6ccc(F)cc6NS(C)(=O)=O)n5)ccc4n3)CC2)CC1 [Example 35, N-(2-((5-bromo-2-((2-(4-(4-methylpiperazin-1-yl)piperidin-1-yl)quinolin-6-yl)amino)pyrimidin-4-yl)amino)-5-fluorophenyl)methanesulfonamide]	0.025 to 0.1	0.1 to 0.5	0.1 to 0.5	0.025 to 0.1
COc1nc(N2CCN(C3CCN(C)CC3)CC2)ccc1Nc1ncc(Br)c(Nc2ccc(F)cc2NS(C)(=O)=O)n1 [Example 36, N-(2-((5-bromo-2-((2-methoxy-6-(4-(1-methylpiperidin-4-yl)piperazin-1-yl)pyridin-3-yl)amino)pyrimidin-4-yl)amino)-5-fluorophenyl)methanesulfonamide]	0.1 to 0.5	2 to 10	0.5 to 2	0.1 to 0.5
COc1nc(N2CCN(C3CCN(C)CC3)CC2)c(C(F)(F)F)cc1Nc1ncc(Br)c(Nc2ccc(F)cc2NS(C)(=O)=O)n1 [Example 37]	> 10	> 10	> 10	> 10
COc1cc(N2CCC(N3CCC(N(C)C)C3)CC2)c(C)cc1Nc1ncc(Br)c(Nc2ccc(F)cc2NS(C)(=O)=O)n1 (stereo not shown) [Example 40, N-(2-((5-bromo-2-((4-(4-(3-(dimethylamino)pyrrolidin-1-yl)piperidin-1-yl)-2-methoxy-5-methylphenyl)amino)pyrimidin-4-yl)amino)-5-fluorophenyl)methanesulfonamide]	0.025 to 0.1	2 to 10	0.5 to 2	0.1 to 0.5
COc1cc(N2CCC(Nc3ccnn3C)CC2)c(C)cc1Nc1ncc(Br)c(Nc2ccc(F)cc2NS(C)(=O)=O)n1 [Example 41, N-(2-((5-bromo-2-((2-methoxy-5-methyl-4-(4-((1-methyl-1H-pyrazol-5-yl)amino)piperidin-1-yl)phenyl)amino)pyrimidin-4-yl)amino)-5-fluorophenyl)methanesulfonamide]	0.1 to 0.5	2 to 10	0.5 to 2	0.5 to 2
COc1cc(N2CCC(N3CCN(C4CC4)CC3)CC2)c(C)cc1Nc1ncc(Br)c(Nc2ccc(F)cc2NS(C)(=O)=O)n1 [Example 42, N-(2-((5-bromo-2-((4-(4-(4-cyclopropylpiperazin-1-yl)piperidin-1-yl)-2-methoxy-5-methylphenyl)amino)pyrimidin-4-yl)amino)-5-fluorophenyl)methanesulfonamide]	0.025 to 0.1	0.5 to 2	0.5 to 2	0.1 to 0.5
COc1cc(N2CCC(N3CCN(C)CC3)CC2)c(C)cc1Nc1ncc(Cl)c(Nc2ccccc2CS(C)(=O)=O)n1 [Example 62]	0.025 to 0.1	0.5 to 2	0.1 to 0.5	0.025 to 0.1
CN1CCN(C2CCN(c3ccc(Nc4ncc(Cl)c(Nc5ccccc5CS(C)(=O)=O)n4)cc3F)CC2)CC1 [Example 63]	0.025 to 0.1	0.025 to 0.1	0.1 to 0.5	0.025 to 0.1
COc1nc(N2CCC(N3CCN(C)CC3)CC2)ccc1Nc1ncc(Cl)c(Nc2ccccc2CS(C)(=O)=O)n1 [Example 64]	0.5 to 2	2 to 10	2 to 10	0.5 to 2
COc1cc(N2CCC(N3CCN(C)CC3)CC2)c(C)cc1Nc1ncc(Cl)c(Nc2cc(Cl)ccc2NC(C)=O)n1 [Example 65, N-(4-chloro-2-((5-chloro-2-((2-methoxy-5-methyl-4-(4-(4-methylpiperazin-1-yl)piperidin-1-yl)phenyl)amino)pyrimidin-4-yl)amino)phenyl)acetamide]	0.1 to 0.5	0.5 to 2	0.5 to 2	0.1 to 0.5
COc1nc(N2CCC(N3CCN(C)CC3)CC2)c(C)cc1Nc1ncc(Cl)c(Nc2cc(Cl)ccc2NC(C)=O)n1 [Example 66, N-(4-chloro-2-((5-chloro-2-((2-methoxy-5-methyl-6-(4-(4-methylpiperazin-1-yl)piperidin-1-yl)pyridin-3-yl)amino)pyrimidin-4-yl)amino)phenyl)acetamide]	0.5 to 2	2 to 10	0.5 to 2	0.1 to 0.5
COc1cc(N2CCC(N3CCN(C)CC3)CC2)c(C)cc1Nc1ncc(Cl)c(Nc2ccccc2NC(C)=O)n1 [Example 68, N-(2-((5-chloro-2-((2-methoxy-5-methyl-4-(4-(4-methylpiperazin-1-yl)piperidin-1-yl)phenyl)amino)pyrimidin-4-yl)amino)phenyl)acetamide]	0.5 to 2	2 to 10	2 to 10	2 to 10
